Measured values published in patent US20250035641A1, “COMPOSITIONS AND METHODS RELATED TO PROTEIN LABELING” (The Chinese University of Hong Kong, priority 2023, published 2025).

Experiments:
HTN-CK2α [1] = molecular target: T1, HTN-CK2α (Homo sapiens, UniProt P68400); experiment: Immunoblot of HTN-CK2α O-GlcNAcylation in HEK293T cells co-expressing fOGT; type: cell-based; conditions: co-treated with OGTAC-1
From the text: Ck2α is a well-studied OGT substrate.^17,25 Its Ser347 is conservatively O-GlcNAcylated and this modification was reported to affect its kinase activity.^16,17 We first co-expressed HTN-Ck2α and fOGT in HEK293T cells at different ratio and found the basal O-GlcNAcylation level of HTN-Ck2α was higher than what we detected in the case of HTN-BRD4. Therefore, a lower ratio of fOGT expression (1:100) was selected for the assessment of OGTAC potency (FIG. 9). […] The induction of specific O-GlcNAcylation on HTN-Ck2α was further confirmed by mass-shift assay. […] To validate the direct binding to both fOGT and HTN-Ck2α is critical, we exploited AP 1867 and rhodamine ligand, which bind to fOGT and HTN-Ck2α respectively, to co-treat with OGTAC-1.
During immunoblotting study, we noticed that even for whole cell lysate (WCL), RL2 antibody band (green) and HTN-CK2α protein band (red) are perfectly overlapped and clearly distinguishable from other bands on blot (FIG. 6B). We assessed the OGTAC treatment effects by quantifying the RL2 signal that is overlapping with HTN-Ck2α in WCL, and found they are corresponding with the results achieved by IP-WB method (FIG. 6C). Therefore, we quantify the intensity of RL2 band that overlapping with HTN-CK2α level instead of IP CK2α in later study.
For each IP reaction, 2.2×10^6 HEK293T cells were seed in 10 cm dish. After cells attached, transfection reagents and plasmids were prepared and added in DMEM. After 24 h transfection, media were replaced by fresh warm complete media with DMSO or probes. For washout study, after 4 h treatment, media with DMSO or OGTAC-4 (500 nM) were replaced by fresh media with DMSO or AP1867 (50 μM) for further incubation. After certain time of OGTACs treatment, cells were collected by cold PBS and lysed by 200 μL complete IP lysis buffer. The lysate was incubated on ice for 20 min, spun down at 14,000 RPM at 4° C. for 15 mins, and the supernatant were collected for bicinchoninic acid (BCA) assay and normalized to a final 2 mg/mL. For input, 20 μL of diluted sample was reacted with equal volume of 10 μM TMR ligand in IP lysis buffer and rotate gently at RT for 15 mins. The remaining samples were subjected to protein A/G magnetic beads (MedChemExpress, HY-K0202), which pre-binding with protein target protein antibody. For samples for LC-MS/MS or HTN-BRD4 mutant constructs. Halo-Trap Magnetic Agarose (Proteintech, otma) was used to incubate with protein lysates. After gentle rotation at 4° C. for at least 16 h, the beads were washed with IP lysis buffer and boiled in 40 μL 2×SDS-loading buffer (Biorad #1610747) for 5 mins to elute proteins from beads. Eluted samples were directly subjected into WB analysis. To get stronger signal of RL2, we used anti-mouse-HRP (Cell signaling, #7076) as secondary antibody for RL2 and anti-rabbit-DyLight 488 (Invitrogen, #35552) as secondary antibody for total target proteins.
In general, cells (from 12 well plate) were lysed by 80 μl RIPA lysis buffer (Thermo Scientic 89901) supplemented with 20 μM OGA inhibitor (Thaimet G, Bidepharm BD571819) and 100X protease inhibitor (MedChemExpress, HY-K0010), incubated on ice for 20 min, spun down at 14,000 RPM at 4° C. for 15 mins, and the supernatant were collected for bicinchoninic acid (BCA) assay and normalizedeto a final 2 mg/mL concentration. About 30 μg of protein samples were loaded for sodium dodecyl sulfatepolyacrylamide gel electrophoresis (SDS-PADE) and blotted with indicated antibodies.
Target sequence in this assay (P68400 with tags, fused parts or gaps): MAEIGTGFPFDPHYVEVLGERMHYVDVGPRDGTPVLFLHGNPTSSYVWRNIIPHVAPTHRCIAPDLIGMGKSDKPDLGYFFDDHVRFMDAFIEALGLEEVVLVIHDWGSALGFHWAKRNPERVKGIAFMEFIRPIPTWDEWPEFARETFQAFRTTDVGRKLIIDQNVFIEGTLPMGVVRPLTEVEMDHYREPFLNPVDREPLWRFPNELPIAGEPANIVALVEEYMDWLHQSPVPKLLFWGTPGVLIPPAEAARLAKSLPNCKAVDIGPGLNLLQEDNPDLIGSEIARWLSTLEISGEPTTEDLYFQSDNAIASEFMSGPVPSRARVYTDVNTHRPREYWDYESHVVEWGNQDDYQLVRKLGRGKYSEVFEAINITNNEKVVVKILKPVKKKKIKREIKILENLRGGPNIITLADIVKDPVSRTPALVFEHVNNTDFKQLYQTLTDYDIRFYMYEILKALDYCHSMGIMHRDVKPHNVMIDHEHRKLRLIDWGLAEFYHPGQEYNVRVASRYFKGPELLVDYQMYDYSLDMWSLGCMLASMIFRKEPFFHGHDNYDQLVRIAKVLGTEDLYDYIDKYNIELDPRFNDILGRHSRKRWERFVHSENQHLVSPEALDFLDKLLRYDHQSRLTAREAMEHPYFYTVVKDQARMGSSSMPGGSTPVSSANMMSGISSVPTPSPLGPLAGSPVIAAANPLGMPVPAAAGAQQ
Target sequence in this assay (P62942+O15294 fused P62942:F37V partner): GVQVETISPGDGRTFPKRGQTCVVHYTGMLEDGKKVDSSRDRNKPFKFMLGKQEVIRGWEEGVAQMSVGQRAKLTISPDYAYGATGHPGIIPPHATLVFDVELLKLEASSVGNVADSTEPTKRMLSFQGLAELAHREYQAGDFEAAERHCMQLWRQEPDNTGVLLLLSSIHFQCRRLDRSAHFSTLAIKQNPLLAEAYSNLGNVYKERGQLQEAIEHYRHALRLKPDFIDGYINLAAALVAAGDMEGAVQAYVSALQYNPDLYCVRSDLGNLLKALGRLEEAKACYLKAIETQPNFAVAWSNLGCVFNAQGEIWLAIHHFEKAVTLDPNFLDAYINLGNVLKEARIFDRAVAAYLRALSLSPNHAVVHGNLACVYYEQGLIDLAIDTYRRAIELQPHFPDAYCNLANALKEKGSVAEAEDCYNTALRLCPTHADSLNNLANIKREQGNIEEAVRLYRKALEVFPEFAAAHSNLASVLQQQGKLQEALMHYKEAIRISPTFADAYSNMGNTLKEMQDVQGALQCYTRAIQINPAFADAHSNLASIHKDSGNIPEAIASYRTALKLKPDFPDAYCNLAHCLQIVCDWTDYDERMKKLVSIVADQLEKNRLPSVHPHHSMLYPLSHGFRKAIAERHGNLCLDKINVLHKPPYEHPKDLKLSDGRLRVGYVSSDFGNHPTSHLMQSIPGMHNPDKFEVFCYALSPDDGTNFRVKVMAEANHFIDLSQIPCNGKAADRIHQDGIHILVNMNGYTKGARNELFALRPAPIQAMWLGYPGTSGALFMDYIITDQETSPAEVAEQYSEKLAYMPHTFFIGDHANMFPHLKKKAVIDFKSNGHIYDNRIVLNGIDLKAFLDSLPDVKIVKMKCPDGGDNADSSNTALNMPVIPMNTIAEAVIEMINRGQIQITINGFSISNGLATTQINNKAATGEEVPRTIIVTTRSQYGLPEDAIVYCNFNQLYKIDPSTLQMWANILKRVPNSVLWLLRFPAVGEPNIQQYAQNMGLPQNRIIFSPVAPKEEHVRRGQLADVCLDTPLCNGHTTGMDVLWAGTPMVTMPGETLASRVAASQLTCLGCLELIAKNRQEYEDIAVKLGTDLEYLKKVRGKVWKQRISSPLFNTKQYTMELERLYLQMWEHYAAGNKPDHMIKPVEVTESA

HTN-BRD4 and 0tfOGT = molecular target: T2, HTN-BRD4 and 0tfOGT (Homo sapiens, UniProt O60885+P62942, F37V); experiment: Washout / reversibility study, HTN-BRD4:0tfOGT; type: cell-based; conditions: AP1867 50 μM after OGTAC-4 500 nM 4 h
T2 construct: HaloTag fragment; 0TPR(463-1046)-; expressed in transfected cells; host or cells: HEK293T
T2 sequence (P62942 whole entry F37V, stated change not applied, other chains not shown, the tested form may be a part): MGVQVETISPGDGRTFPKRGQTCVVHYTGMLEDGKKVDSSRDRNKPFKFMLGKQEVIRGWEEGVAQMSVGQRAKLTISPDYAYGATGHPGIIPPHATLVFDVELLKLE
Method: FIGS. 7A-7E: Specificity and reversibility of OGTAC strategy. […] (B), Constructs of fOGT with 13.5 (rounded to 13) TPR and 0TPR-fOGT (0tfOGT). (C). […] (D), Dose-dependent O-GlcNAcylation profile of HTN-BRD4 by OGTAC-4 treatment. HEK293T cells expressing HTN-BRD4:0tfOGT=1:0.05 were treated with an increasing concentration of OGTAC-4 for 4 h. Then, the O-GlcNAcylation level of HTN-BRD4 was assessed by immunoblot after IP using BRD4 antibody. All quantifications are shown as mean±s.e.m. of n=3 biologically independent experiments. (E), Reversible effect of OGTAC-4 on HTN-BRD4 can be achieved by addition of AP1867. HEK293T cells expressing HTN-BRD4:0tfOGT=1:0.05 were pretreated with OGTAC-4 (500 nM) or DMSO for 4 h, and culturing media were replaced by fresh media with DMSO or AP1867 (50 μM) for the indicated time. The quantifications in right panel were conducted by the normalizing the fold-change (OGTAC-4/DMSO) for each post-washout time point to the value of 4 h pre-treatment. All quantifications are shown as mean±s.e.m. of 3 independent biological repeats. Statistical significance was calculated with ordinary one-way ANOVA comparing samples with different transfection conditions or OGTAC-treatment. ns, p≥0.05; *p<0.05; **p<0.01; ***p<0.001; ****p<0.0001.
To assess the potential application of our OGTAC strategy in downstream biological studies, we investigated the reversibility of OGTACs. […] Additionally. the O-GlcNAc level of BRD4 returned to baseline after 6 hours of AP1867 treatment, confirming the reversibility of the induction effect (FIG. 7E).
For each IP reaction, 2.2×10^6 HEK293T cells were seed in 10 cm dish. After cells attached, transfection reagents and plasmids were prepared and added in DMEM. After 24 h transfection, media were replaced by fresh warm complete media with DMSO or probes. For washout study, after 4 h treatment, media with DMSO or OGTAC-4 (500 nM) were replaced by fresh media with DMSO or AP1867 (50 μM) for further incubation. After certain time of OGTACs treatment, cells were collected by cold PBS and lysed by 200 μL complete IP lysis buffer. […]

FKBP12^F36V = FKBP12^F36V (Homo sapiens, UniProt P62942, F37V); conditions: cited from earlier work
FKBP12^F36V, sequence (P62942 whole entry F37V): as the sequence (P62942 whole entry F37V, stated change not applied, other chains not shown, the tested form may be a part) above

HTN-CK2α [2] = molecular target: T1, HTN-CK2α; experiment: O-GlcNAcylation of HTN-CK2α with 0tfOGT; type: cell-based; parameters: 0TPR(463-1046)-; expressed in transfected cells
Method: FIGS. 18A and 18B: Immunoblotting analysis of the global O-GlcNAcylation inducing effect of truncated OGTAC-4 and OGTAC-1 on HTN-BRD4 and HTN-CK2α respectively. (A), O-GlcNAcylation inducing effect of OGTAC-4 is dependent on the expression of 0tfOGT. […] The quantification was conducted by immunoblot signal of probe treatment/control as the mean±s.e.m. of n=2 biologically independent experiments. TR, transfection reagent.
Target sequence in this assay (P68400 with tags, fused parts or gaps): as the sequence (P68400 with tags, fused parts or gaps) above
Target sequence in this assay (P62942+O15294 fused P62942:F37V partner): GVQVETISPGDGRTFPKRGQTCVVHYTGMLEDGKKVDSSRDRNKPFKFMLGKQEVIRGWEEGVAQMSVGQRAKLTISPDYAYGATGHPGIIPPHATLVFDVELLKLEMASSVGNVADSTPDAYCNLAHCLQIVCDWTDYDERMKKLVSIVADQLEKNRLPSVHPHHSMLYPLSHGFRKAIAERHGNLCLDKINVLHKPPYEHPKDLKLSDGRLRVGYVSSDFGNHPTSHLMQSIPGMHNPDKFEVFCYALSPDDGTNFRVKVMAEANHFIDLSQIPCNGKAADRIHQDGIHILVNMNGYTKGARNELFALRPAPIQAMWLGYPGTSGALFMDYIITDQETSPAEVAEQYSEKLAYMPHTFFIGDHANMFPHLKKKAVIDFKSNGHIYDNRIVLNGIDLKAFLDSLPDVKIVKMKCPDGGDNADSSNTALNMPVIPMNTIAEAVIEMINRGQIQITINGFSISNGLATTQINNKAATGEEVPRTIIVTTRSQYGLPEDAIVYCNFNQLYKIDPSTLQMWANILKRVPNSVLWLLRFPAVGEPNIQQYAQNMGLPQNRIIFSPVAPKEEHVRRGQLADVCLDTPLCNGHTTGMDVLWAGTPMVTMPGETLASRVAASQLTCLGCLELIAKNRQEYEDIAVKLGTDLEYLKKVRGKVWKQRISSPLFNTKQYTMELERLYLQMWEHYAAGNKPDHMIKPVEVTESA

[3] = tested on: HTN-BRD4 covalently linked to OGTAC-1

With CC[C@H](C(=O)N1CCCC[C@H]1C(=O)O[C@H](CCc1ccc(OC)c(OC)c1)c1cccc(OCC(=O)O)c1)c1cc(OC)c(OC)c(OC)c1 [AP1867, 2-[3-[(1R)-3-(3,4-dimethoxyphenyl)-1-[(2S)-1-[(2S)-2-(3,4,5-trimethoxyphenyl)butanoyl]piperidine-2-carbonyl]oxy-propyl]phenoxy]acetic acid] the “effect of competitor co-treatment on OGTAC-1 induced HTN-CK2α O-GlcNAcylation” value (HTN-CK2α [1]) was “abolished the O-GlcNAcylation inducing effects”, the “time for O-GlcNAc level of BRD4 to return to baseline” value (HTN-BRD4 and 0tfOGT) was 6 h and the “time to marked decrease in ternary complex formation” value (HTN-BRD4 and 0tfOGT) was at most 2 h. The Kd (FKBP12^F36V) was 1.8 nM.
In the case of CCCCCCOCCOCCNC(=O)COc1cccc([C@@H](CCc2ccc(OC)c(OC)c2)OC(=O)[C@@H]2CCCCN2C(=O)[C@@H](CC)c2cc(OC)c(OC)c(OC)c2)c1 [OGTAC-1H, (R)-3-(3,4-dimethoxyphenyl)-1-(3-(2-((2-(2-(hexyloxy)ethoxy)ethyl)amino)-2-oxoethoxy)phenyl)propyl(S)-1-((S)-2-(3,4,5-trimethoxyphenyl)butanoyl)piperidine-2-carboxylate], the “recruitment of 0tfOGT to HTN-CK2α” value (HTN-CK2α [2]) is reported as “unable to recruit 0tfOGT to HTN-CK2α”.
For CN(C)c1ccc2c(-c3cc(C(=O)NCCOCCOCCCCCCCl)ccc3C(=O)[O-])c3ccc(=[N+](C)C)cc-3oc2c1 [rhodamine ligand, 4-((2-(2-((6-chlorohexyl)oxy)ethoxy)ethyl)carbamoyl)-2-(6-(dimethylamino)-3-(dimethyliminio)-3H-xanthen-9-yl)benzoate, reference compound], the “effect of competitor co-treatment on OGTAC-1 induced HTN-CK2α O-GlcNAcylation” value (HTN-CK2α [1]) was “abolished the O-GlcNAcylation inducing effects”.
For FKBP12^F36V fused-OGT, the “RL2 signal of BRD4 (O-GlcNAcylation of HTN-BRD4, IP-immunoblot) after 2 h of OGTAC-1 640 nM” value [3] was 2.5-fold increase at 2 h and the “RL2 signal of BRD4 (O-GlcNAcylation of HTN-BRD4, IP-immunoblot) after 4 h of OGTAC-1 640 nM” value [3] was “further escalated to around 2.8-fold at 4 h”.
